Data as given in patent US11103548B2, “Treatment of endometriosis, angiogenesis and/or endometrial lesion growth” (priority 2013, dated 2021).
No end group written: not given here. *: point of attachment. FITC = O=C1OC2(c3ccc(O)cc3Oc3cc(O)ccc32)c2ccc(NC(=S)*)cc21

Legend:
[1] = target: T1, SNCG (Homo sapiens, UniProt O76070); assay: co-immunoprecipitation (co-IP) of peptide with SNCG in MCF7-SNCG cells; assay type: binding; settings: FITC tagged peptide, 8 hour after treatment, IP with anti-SNCG antibody, western blot with anti-FITC antibody
T1 construct: expressed in transfected cells; host or cells: MCF7-SNCG cells
Procedure: In vivo binding of ST011 to SNCG was examined in co-immunoprecipitation (co-IP) experiments (See FIG. 1). MCF7-SNCG cells were treated with FITC tagged […] (TAT)-ST011 (SEQ ID NO: 10) (lane 1 of FIG. 1), or FITC tagged YGRKKRRQRRR (TAT) alone (SEQ ID NO: 11) (lane 2 of FIG. 1) or no treatment control (lane 3 of FIG. 1). 8 hour after treatment, cell lysates were prepared and IP with anti-SNCG antibody was conducted. The presence of TAT-ST011 in SNCG IP complexes obtained from different treated cells was detected by western blot using anti-FITC antibody. […] Thus, FIG. 1 provides further evidence that SNCG is capable of immunoprecipitating TAT-ST011.

[2] = tested on: fertility of the animals; assay: fertility by mating in humanized animal models of endometriosis after treatment; assay type: in vivo; settings: mating after endometriosis is inhibited and treatment is stopped
Procedure: The ability of ST011 to inhibit endometriosis without effecting fertility can be confirmed in, for example, animal model of endometriosis. For these experiments, humanized animal models of endometriosis first can be treated with ST011 and once endometriosis is inhibited and treatment is stopped, fertility of the animals is tested by mating.

[3] = tested on: CRL 7566 cells; assay: intracellular permeability by fluorescent microscopy; assay type: cell-based; settings: 20 micro molar FITC tagged peptide, after 6 hours
Procedure: To further examine the utility of the ST011 peptide as a therapeutic tool against angiogenesis, endometriosis and/or endometrial lesion growth, this peptide was further examined to observe its intracellular permeability in endometrial cells. For these experiments, GYGRKKRRQRRR (TAT) tagged GNSALHVASQHG (ST011) (SEQ ID NO: 10) and a control peptide GYGRKKRRQRRR (TAT CTL; SEQ ID NO: 11) were chemically synthesized. Each peptide contained FITC on its N-terminal end. These peptides were dissolved in 2% DMSO in PBS (pH 7.3) and applied directly on the Petri dish containing model cells (CRL 7566 or HUVECs) at required concentrations. Active internalization of peptide was observed using fluorescent microscopy. Three independent experiments were performed with duplicates of each condition. Model cell line for endometriosis, CRL 7566 cells (FIG. 2) received 20 micro molar FITC tagged TAT-ST011. After 6 hours cells were examined under fluorescent microscope.

[4] = tested on: HUVECs; assay: WST-1 proliferation assay; assay type: cell-based; settings: 600 ng/mL to 2.5 ng/mL, 48 hours of treatment, PBS control
Procedure: Endothelial cells are an integral part of blood vessels and the proliferation of endothelial cells is extremely important for angiogenesis. Therefore, to assess the role of α-synuclein in endothelial cell proliferation, HUVECs were plated and treated with various concentrations of TATST011 peptide GNSALHVASQHG (SEQ ID NO: 2) ranging from 600 ng/mL to 2.5 ng/mL using PBS as a control. In order to measure the effect of TAT-ST011 peptide GNSALHVASQHG (SEQ ID NO: 2) on HUVEC proliferation a WST-1 proliferation assay was performed.
HUVECs and epithelial cells were trypsinized, suspended in cultured medium and counted. Approximately 10,000 cells per well were seeded onto a 96 well plate. After allowing 24 hours for attachment in 37° C., the cells were treated with either 600 ng/mL, 300 ng/mL, 150 ng/mL, 5 ng/mL or 2.5 ng/mL of TAT-P12 using phosphate buffer saline (PBS, (Sigma Chemical Co., St. Louis, Mo., USA) as a control. The drug was suspended in RPMI. The plates were incubated in 37° C. for 24 or 48 hours after which 10 μL of WST-1 (Roche, Laval, QC, Canada) was added to each well. The plate was then incubated in 37° C. for another 4 hours. The absorbance of the wells was measured at a wavelength of 490 nm or at 510 nm.

[5] = tested on: HUVECs; assay: in vitro angiogenic tube formation on gel matrix; assay type: cell-based
Procedure: Next, effect of TAT-ST011 peptide GNSALHVASQHG (SEQ ID NO: 2) on angiogenesis and tube formation of HUVEC cell was evaluated.
Extracellular matrix gel solution (Cell biolabs inc, San Diego, Calif., USA) had been thawed overnight at 4° C. and approximately […] of ECM gel solution was added to each well of a 96 well plate. The plate was incubated at 37° C. for 1 hour. HUVECs were trypsinized from culture and approximately 20,000 cells were added per well to the ECM containing 96 well plate. Each well was treated with […] of TAT-P12 at a concentration of 600 ng/mL, 300 ng/mL, 150 ng/mL, 5 ng/mL or 2.5 ng/mL. PBS was used as a control. The tube formation was visualized using a spinning disc confocal microscope and the images were stacked together using ImageJ.

[6] = tested on: human endometriotic lesions; assay: mouse xenograft model of endometriosis, gross observation of lesion growth and vascularization; assay type: in vivo, mice; settings: 20 mg/kg daily intraperitoneal for 21 days, necropsy one week after treatment, versus saline
Procedure: Gross observation of endometriotic lesion growth and vascularization in vivo was performed using an animal model. […] The peritoneal cavity of the mice was exposed using surgical tools and the endometriotic lesions were located manually.
A mouse xenograft model was developed using Rag2^−/−/I12rg^−/− double knockout mice on a BalbC background.
Since human estrogen is important for the growth of human endometriotic lesions the mice (n=12) had 60-day release 13-estradiol 17-acetate pellets (15 mg/pellet) (Innovative Research of America, Sarasota, Fla., USA) subcutaneously implanted. The mice were anaesthetized with isofluorane (Pharmaceutical Partners of Canada, Richmond Hill, ON, Canada).
Five days after the implantation of the estrogen 5 pellet, eutopic endometrium obtained from hysterectomy and endometrial biopsies performed at Kingston General Hospital was implanted in the peritoneal cavity of the mice. The obtained endometrium was cut into equal pieces and washed with PBS. The pieces of endometrium were kept in PBS on ice until the surgeries were performed. The mice were anaesthetized in an isofluorane chamber and a small incision was made in their abdomen. Two to three lesions were adhered on the left side of the peritoneal cavity using Vetbond tissue adhesive (3M, St. Paul, Minn., USA) and one or two pieces were dropped freely in the cavity. […]

T1 sequence (O76070 whole entry): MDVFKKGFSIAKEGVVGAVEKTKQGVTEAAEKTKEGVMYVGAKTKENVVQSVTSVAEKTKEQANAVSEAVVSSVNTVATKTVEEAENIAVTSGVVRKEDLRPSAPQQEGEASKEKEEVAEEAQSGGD

Substance	co-precipitation with SNCG (binding to SNCG) [1]	effect on fertility of the animals [2]	internalization of peptide into endometrial cells [3]	proliferation of HUVECs [4]	morphology of the HUVECs (cell lysis) ([5]; 300 ng/mL and 600 ng/mL)	concentration that inhibited tube formation and also changed the morphology of the HUVECs ([5]; HUVECs on gel matrix) [ng/mL]	tube formation / branching of HUVECs ([5]; various concentrations (600 to 2.5 ng/mL), confocal microscopy)	endometriotic lesion growth [6]	vascularization of the lesions [6]
GYGRKKRRQRRR ({FITC}-GYGRKKRRQRRR) [TAT alone, control peptide … (TAT CTL, reference compound]	not TAT alone is found to co-precipitate with SNCG								
Ac-GNSALHVASQHG-NH2 [ST011 peptide, GNSALHVASQHG]		no effect of ST011 peptide on the fertility							
GYGRKKRRQRRR (TAT) tagged GNSALHVASQHG (ST011) [TAT-ST011]	co-precipitate with SNCG		capable of going inside endometrial cells	dose dependently decreased the proliferation of HUVECs	caused the cells to lyse	≥ 5	dose dependent inhibition of tube formation	inhibited growth of lesion	prevented the formation of blood vessels to the lesions
